Data: patent publication US7629383B2, “Double esters” (Drug Discovery Laboratory AS, priority 2001, dated 2009)
Like-named read-outs stand apart in the source and are kept apart here.

Experiments:
Staphylococcus aureus = test: Antibacterial effect on agar gels; type: cell-based; conditions: same amount (10 mg)
Procedure: The antibacterial effects of azelaic acid and the azelaic acid derivatives of Examples 7, 12 and 13 on Staphylococcus aureus were tested on agar gels.

[1] = Clinical testing of creams, indication skin cancer; type: in vivo, human; conditions: one person, skin cancer in the face
Procedure: A person with skin cancer in the face (one lesion above the nose) was treated with photodynamic therapy (5-ALA methyl ester, available from Photocure ASA, Oslo, Norway). The outcome of the treatment was very good. After about one year they observed a new lesion in the same area.

[2] = cited from earlier work

Row | SMILES | inhibiting zones on agar gel (Staphylococcus aureus) | other results
1 | CCCC(=O)OCOC(=O)CCCCCCCC(=O)OCOC(=O)CCC [Example 12, bis-(butanoyloxymethyl)nonanedioate] | large inhibiting zones | –
2 | CCCCCC(=O)OCOC(=O)CCCCCCCC(=O)OCOC(=O)CCCCC [Example 13, bis-(hexanoyloxymethyl) nonanedioate] | large inhibiting zones | –
3 | COC(=O)CCC(=O)CN [5-ALA methyl ester] | – | outcome of photodynamic therapy [1]: very good
4 | CCOC(=O)OC(C)OC(=O)CCCCCCCC(=O)OC(C)OC(=O)OCC (centres unmarked) [Example 7, bis-[1-[ethoxycarbonyloxy]-ethyl]nonanedioate] | large inhibiting zones | –
5 | O=C(O)CCCCCCCC(=O)O [azelaic acid, nonanedioic acid] | no inhibiting effect | dose absorbed ([2]; administered orally): about 60%; dose absorbed ([2]; administered topically): about 3.6%; absorbed azelaic acid excreted into the urine ([2]; within 12 hours): 60%
